Test results published in patent US11059844B2, “Immune stimulating macrolides” (ISR IMMUNE SYSTEM REGULATION HOLDING AB (PUBL), priority 2017, dated 2021).

How the values were obtained:
[1] = system: Monocytes differentiated into macrophages; test: CD80 expression on monocytes differentiated into macrophages; type: cell-based, Human; conditions: 24 h
Protocol: Human peripheral blood mononuclear cells (PBMCs) were purified from healthy donors with Ficoll-Paque density centrifugation. Cells were cultured in complete RPMI-1640 media (Invitrogen) supplemented with 25 mM HEPES, L-glutamine, Sodium pyruvate (Sigma), 10% fetal bovine serum, 100 μg/mL penicillin and 100 μg/mL streptomycin (Hyclone) for 24-72 hours in 37° C., 5% CO2 and stimulated with and increasing concentrations of compound 1 and 2. Cells were then washed in PBS and stained with monoclonal antibodies specific for cell surface markers (BD Pharmingen) and analysed with flow cytomtetry using a BD FACS Canto II flow cytometer. All samples were tested in duplicates.
Human peripheral blood mononuclear cells (PBMCs) were purified from healthy donors with Ficoll-Paque density centrifugation. Cells were cultured in complete RPMI-1640 medium (Invitrogen) supplemented with 25 mM HEPES, L-glutamine, Sodium pyruvate (Sigma), 10% fetal bovine serum, 100 μg/mL penicillin and 100 μg/mL streptomycin (Hyclone). […] The cells were removed from the plate, washed in PBS and analysed for expression of cell specific surface markers and MHC class I with flow cytomtery using monoclonal antibodies from BD Pharmingen and a FACS Canto II flow cytometer.

CD4+ T cells = test: IL-1beta secretion from CD4+ T cells (cytometric bead assay); type: cell-based, Human; conditions: 2 days
Protocol: (§1) FIG. 13: IL1b secretion (as measured by cytometric bead assay) from PBMC, macrophages or CD4 T cells stimulated with indicated compound for 48 h.
(§2) Study 12: PBMCs, macrophages and CD4+ T cells where exposed to compounds 1 and 2 for 2 days.

[2] = system: Macrophages from healthy donors; test: Cytokine/chemokine secretion from macrophages (cytometric bead assay); type: cell-based, Human
Protocol: FIG. 10: Interferon-gamma secretion (as measured by cytometric bead assay) from macrophages stimulated with indicated compound for 48 h.
(§3) FIG. 11: Chemokine RANTES secretion (as measured by cytometric bead assay) from PBMC or macrophages stimulated with indicated compound for 48 h.
(§4) FIG. 12: IL12p70 secretion (as measured by cytometric bead assay) from PBMC or macrophages stimulated with indicated compound for 48 h.
as §1
Study 9: Macrophages from healthy donors where exposed to compounds 1 or 2 for 48 hours. […] Compound 1 is therefore able to induce IFN-gamma secretion in macrophages from healthy donors.
(§5) Study 10: PBMCs and macrophages where exposed to compounds 1 or 2 for 2 days (FIG. 11).
(§6) Study 11: PBMCs and macrophages where exposed to compounds 1 and 2 for 2 days.
as §2

PBMCs [3] = test: Supernatant IL-10 sandwich ELISA; type: cell-based, Human; conditions: […] with 100 U/mL IL-2, 48 h and 7 days
Protocol: Supernatant IL-10 was measured with a standard sandwich ELISA (all antibodies from BD Biosciences) after 48 hours and 7 days incubation with 2.5 μM of compound 1 and 100 U/mL IL-2 (Miltenyi Biotechnologies) in complete RPMI media, 37° C., 5% CO2
Supernatant IL-10 was measured with a standard sandwich ELISA (all antibodies from BD Biosciences) after 48 hours and 7 days incubation with 2.5 uM of compound 1 and 100 U/mL IL-2 (Miltenyi Biotechnologies) in complete RPMI media, 37° C., 5% CO2.
This indicate an immune inhibitory effect under certain conditions (FIG. 5).

PBMCs [4] = test: Cytokine/chemokine secretion from PBMCs (cytometric bead assay); type: cell-based, Human; conditions: 2 days
Protocol: as §3, §4, §1, §5, §6, §2

[5] = system: E. coli, S. salivarius, L. casei, B. longum or M. luteus; test: Direct antibacterial activity, summary over all strains tested; type: cell-based; conditions: summary in words of Table 1
Protocol: (§7) The bioactivity of macrolide compounds against 4 strains of common gut bacteria (Escherichia coli, Streptococcus salivarius subsp. salivarius, Lactobacillus casei and Bifidobacterium longum subsp. infantis) and common mammalian skin isolate Micrococcus luteus, was assessed using the Minimum Inhibitory Concentration (MIC) assay. Bacterial strains were purchased from DSMZ (Brunswick, Germany) except M. luteus which was obtained from NCIMB, and stored in 20% glycerol at −80° C. Stock solutions (100% DMSO) of positive controls (azithromycin and erythromycin), and of test compounds 1 and 2 were diluted in broth to working stock concentrations of 256 μg/ml (final assay testing concentration range 128 μg/ml to 0.00391 μg/ml). Stock solutions of all other compounds were diluted in broth to working stock concentrations of 128 μg/ml (final assay testing concentration range 64 μg/ml to 0.00195 μg/ml). Bacterial strains were cultivated in appropriate broth in an anaerobic chamber at 37° C., except for M. luteus which was incubated aerobically at 37° C. 18 h cultures were diluted in broth to an OD595 of 0.1 and then further diluted 1:10. In 96-well plates, in duplicate, 200 μl working stock of test compound was transferred to well 1 and serially diluted (1:2) in broth. 100 μl bacterial suspension was aliquoted into each well and mixed thoroughly. Appropriate sterility controls were included and plates were incubated in an anaerobic chamber, or aerobically (M. luteus) at 37° C. for 18 h. The MIC was determined to be the concentration of test compound in the first well with no visible growth.

Lactobacillus casei = test: Minimum Inhibitory Concentration (MIC) assay; type: cell-based; conditions: Lacticaseibacillus casei; anaerobic, 37° C., 18 h
Protocol: as §7

[6] = system: Streptococcus salivarius subsp. salivarius; test: Minimum Inhibitory Concentration (MIC) assay; type: cell-based; conditions: anaerobic, 37° C., 18 h
Protocol: as §7

[7] = system: Bifidobacterium longum subsp. infantis; test: Minimum Inhibitory Concentration (MIC) assay; type: cell-based; conditions: anaerobic, 37° C., 18 h
Protocol: as §7

Escherichia coli = test: Minimum Inhibitory Concentration (MIC) assay; type: cell-based; conditions: anaerobic, 37° C., 18 h
Protocol: as §7

Micrococcus luteus = test: Minimum Inhibitory Concentration (MIC) assay; type: cell-based; conditions: aerobic, 37° C., 18 h
Protocol: as §7

CC[C@H]1OC(=O)[C@H](C)[C@@H](O[C@H]2C[C@@H](N(C)C)[C@H](O)[C@@H](C)O2)[C@H](C)[C@@H](O)[C@](C)(O)C[C@@H](C)CN(C)[C@H](C)[C@@H](O)[C@]1(C)O [Compound 1]
CD80 on macrophages [1]: upregulated
IL-1beta secretion, CD4+ T cells (CD4+ T cells): no IL-1beta was induced
IL-1beta secretion, macrophages ([2]; 2 days): increased
IL-12p70 secretion, macrophages ([2]; 2 days): secreted IL-12p70
RANTES expression, macrophages ([2]; 2 days): high expression
IFN-gamma secretion, macrophages ([2]; 48 hours): secreted IFN-gamma
production of IL-10 (PBMCs [3]): increased production
IL-1beta secretion, PBMCs (PBMCs [4]): slightly
IL-12p70 secretion, PBMCs (PBMCs [4]): secreted IL-12p70
RANTES expression, PBMCs (PBMCs [4]): twofold upregulation
antibacterial activity against the bacterial strains tested [5]: no antibacterial activity
MIC (Lactobacillus casei): > 64 µg/mL
MIC [6]: > 64 µg/mL
MIC [7]: > 64 µg/mL
MIC (Escherichia coli): > 64 µg/mL
MIC (Micrococcus luteus): > 256 µg/mL
